Our source for the inhibition values is ChEMBL document CHEMBL5653615 (J Biol Chem, 2013).

In test [1] the target is Activated CDC42 kinase 1 (Homo sapiens) (UniProt Q07912). As to the kind of experiment: Inhibition of human ACK1 at 500 nM by HotSpot assay relative to control.
The target of test [2] is CDK1/Cyclin A (Homo sapiens) (UniProt P06493+P20248). The test can be described thus: Inhibition of human CDK1/cyclin A at 500 nM by HotSpot assay relative to control. It counts as protein-complex assay.
For test [3], the target named is Mitogen-activated protein kinase kinase kinase 8 (Homo sapiens) (UniProt P41279). As to the kind of experiment: Inhibition of human COT1 at 500 nM by HotSpot assay relative to control.
In test [4] the target is Tyrosine-protein kinase Fgr (Homo sapiens) (UniProt P09769). The test can be described thus: Inhibition of human FGR at 500 nM by HotSpot assay relative to control.
The target of test [5] is Insulin-like growth factor 1 receptor (Homo sapiens, UniProt P08069). The test can be described thus: Inhibition of human IGF1R at 500 nM by HotSpot assay relative to control.
The target of test [6] is Insulin receptor (Homo sapiens) (UniProt P06213). As to the kind of experiment: Inhibition of human IR at 500 nM by HotSpot assay relative to control.
Sequence of Insulin receptor (Homo sapiens) (P06213 28-758 limits assumed): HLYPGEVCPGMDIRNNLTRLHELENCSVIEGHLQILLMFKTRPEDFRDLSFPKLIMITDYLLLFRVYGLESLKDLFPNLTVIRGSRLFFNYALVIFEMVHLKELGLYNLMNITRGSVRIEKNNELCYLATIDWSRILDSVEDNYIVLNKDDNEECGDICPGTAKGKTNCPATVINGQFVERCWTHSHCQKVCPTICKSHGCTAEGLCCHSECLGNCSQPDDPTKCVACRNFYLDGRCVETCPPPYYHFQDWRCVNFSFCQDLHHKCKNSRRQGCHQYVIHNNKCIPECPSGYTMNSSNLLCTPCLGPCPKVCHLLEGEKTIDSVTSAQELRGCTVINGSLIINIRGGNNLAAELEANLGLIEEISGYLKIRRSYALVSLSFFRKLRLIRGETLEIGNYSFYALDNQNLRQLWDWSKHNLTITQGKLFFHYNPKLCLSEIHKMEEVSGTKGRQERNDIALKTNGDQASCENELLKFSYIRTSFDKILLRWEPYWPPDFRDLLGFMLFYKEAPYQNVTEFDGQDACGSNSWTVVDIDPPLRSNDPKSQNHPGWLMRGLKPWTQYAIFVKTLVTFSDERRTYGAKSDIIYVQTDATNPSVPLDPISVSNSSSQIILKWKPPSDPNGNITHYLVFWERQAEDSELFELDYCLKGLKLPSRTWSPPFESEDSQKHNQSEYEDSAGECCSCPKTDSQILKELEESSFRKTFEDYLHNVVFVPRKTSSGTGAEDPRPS
Sequence of Insulin receptor (Homo sapiens) (P06213 763-1382 limits assumed): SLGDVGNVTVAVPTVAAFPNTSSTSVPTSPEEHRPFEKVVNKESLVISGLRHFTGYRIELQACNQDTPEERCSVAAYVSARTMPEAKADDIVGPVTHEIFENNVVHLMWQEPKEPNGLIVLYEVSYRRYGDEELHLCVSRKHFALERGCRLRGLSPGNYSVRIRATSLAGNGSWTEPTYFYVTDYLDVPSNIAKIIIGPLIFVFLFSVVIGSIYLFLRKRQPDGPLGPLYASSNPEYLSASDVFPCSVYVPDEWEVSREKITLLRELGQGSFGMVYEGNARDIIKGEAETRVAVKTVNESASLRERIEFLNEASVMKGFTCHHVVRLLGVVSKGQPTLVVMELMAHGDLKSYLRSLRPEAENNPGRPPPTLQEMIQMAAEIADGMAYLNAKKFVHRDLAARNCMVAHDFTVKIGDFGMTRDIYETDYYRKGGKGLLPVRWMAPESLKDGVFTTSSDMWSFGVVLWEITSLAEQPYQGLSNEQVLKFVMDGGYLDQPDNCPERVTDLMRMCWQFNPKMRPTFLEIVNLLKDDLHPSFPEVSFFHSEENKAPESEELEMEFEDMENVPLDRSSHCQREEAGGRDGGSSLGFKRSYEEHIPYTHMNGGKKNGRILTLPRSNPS
Test [7] has as its target Serine/threonine-protein kinase 10 (Homo sapiens) (UniProt O94804). The test can be described thus: Inhibition of human LOK at 500 nM by HotSpot assay relative to control.
In test [8] the target is Tyrosine-protein kinase Lyn (Homo sapiens) (UniProt P07948). The test can be described thus: Inhibition of human LYN at 500 nM by HotSpot assay relative to control.
Sequence of Tyrosine-protein kinase Lyn (Homo sapiens) (P07948 2-512 limits assumed): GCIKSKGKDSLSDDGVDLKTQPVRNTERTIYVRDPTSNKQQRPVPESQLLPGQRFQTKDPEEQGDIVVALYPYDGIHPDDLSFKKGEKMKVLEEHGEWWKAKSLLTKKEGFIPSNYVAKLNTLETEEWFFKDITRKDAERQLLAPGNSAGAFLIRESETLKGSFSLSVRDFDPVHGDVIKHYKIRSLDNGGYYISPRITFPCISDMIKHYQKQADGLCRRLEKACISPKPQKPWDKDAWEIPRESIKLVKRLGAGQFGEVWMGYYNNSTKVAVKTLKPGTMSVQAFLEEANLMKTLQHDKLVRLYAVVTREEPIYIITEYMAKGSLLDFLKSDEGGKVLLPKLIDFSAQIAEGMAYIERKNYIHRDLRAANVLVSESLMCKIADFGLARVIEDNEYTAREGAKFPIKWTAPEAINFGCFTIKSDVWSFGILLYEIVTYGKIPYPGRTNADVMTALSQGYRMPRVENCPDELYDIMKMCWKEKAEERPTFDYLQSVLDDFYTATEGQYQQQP
The target of test [9] is Mitogen-activated protein kinase 11 (Homo sapiens) (UniProt Q15759). The test can be described thus: Inhibition of human MAPK11 at 500 nM by HotSpot assay relative to control.
Sequence of Mitogen-activated protein kinase 11 (Homo sapiens) (Q15759 whole entry): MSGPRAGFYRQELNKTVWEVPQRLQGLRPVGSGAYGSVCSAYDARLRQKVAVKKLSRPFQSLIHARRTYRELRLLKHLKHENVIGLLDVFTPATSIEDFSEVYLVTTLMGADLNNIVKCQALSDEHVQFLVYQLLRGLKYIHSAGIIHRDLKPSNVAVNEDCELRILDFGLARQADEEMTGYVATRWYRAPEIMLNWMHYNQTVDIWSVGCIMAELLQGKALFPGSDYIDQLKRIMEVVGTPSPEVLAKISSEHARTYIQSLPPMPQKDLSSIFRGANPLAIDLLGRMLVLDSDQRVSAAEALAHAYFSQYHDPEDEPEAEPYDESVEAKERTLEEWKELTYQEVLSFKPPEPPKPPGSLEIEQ
For test [10], the target named is Ribosomal protein S6 kinase beta-2 (Homo sapiens) (UniProt Q9UBS0). The test can be described thus: Inhibition of human RPS6KB2 at 500 nM by HotSpot assay relative to control.
Sequence of Ribosomal protein S6 kinase beta-2 (Homo sapiens) (Q9UBS0 whole entry): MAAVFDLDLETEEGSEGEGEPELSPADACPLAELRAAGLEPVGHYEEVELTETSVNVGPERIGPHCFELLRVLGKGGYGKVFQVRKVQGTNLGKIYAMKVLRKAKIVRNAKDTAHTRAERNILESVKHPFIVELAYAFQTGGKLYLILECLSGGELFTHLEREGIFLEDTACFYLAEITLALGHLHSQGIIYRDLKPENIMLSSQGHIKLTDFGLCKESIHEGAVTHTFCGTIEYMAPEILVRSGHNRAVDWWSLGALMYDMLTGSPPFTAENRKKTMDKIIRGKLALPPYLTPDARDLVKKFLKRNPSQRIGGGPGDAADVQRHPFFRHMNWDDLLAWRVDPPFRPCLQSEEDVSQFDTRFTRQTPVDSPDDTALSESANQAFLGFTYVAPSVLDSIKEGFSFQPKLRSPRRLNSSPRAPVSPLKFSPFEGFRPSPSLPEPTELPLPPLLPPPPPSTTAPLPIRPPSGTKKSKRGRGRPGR
Test [11] addresses T1, cAMP-dependent protein kinase catalytic subunit PRKX (Homo sapiens) (UniProt P51817).
T1 sequence (whole entry): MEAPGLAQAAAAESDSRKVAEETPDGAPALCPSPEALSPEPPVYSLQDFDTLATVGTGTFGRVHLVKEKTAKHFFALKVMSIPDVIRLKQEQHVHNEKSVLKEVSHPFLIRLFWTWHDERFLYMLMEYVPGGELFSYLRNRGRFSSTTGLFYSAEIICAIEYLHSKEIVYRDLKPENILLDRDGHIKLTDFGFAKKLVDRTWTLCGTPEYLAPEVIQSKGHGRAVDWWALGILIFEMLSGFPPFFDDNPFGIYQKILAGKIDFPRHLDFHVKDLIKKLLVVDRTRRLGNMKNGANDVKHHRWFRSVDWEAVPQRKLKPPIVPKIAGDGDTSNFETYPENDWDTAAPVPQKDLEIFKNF
The test can be described thus: Inhibition of human PRKX at 500 nM by HotSpot assay relative to control.

The target in test [12] is Receptor-interacting serine/threonine-protein kinase 2 (Homo sapiens) (UniProt O43353). As to the kind of experiment: Inhibition of human RIPK2 at 500 nM by HotSpot assay relative to control.
Sequence of Receptor-interacting serine/threonine-protein kinase 2 (Homo sapiens) (O43353 whole entry): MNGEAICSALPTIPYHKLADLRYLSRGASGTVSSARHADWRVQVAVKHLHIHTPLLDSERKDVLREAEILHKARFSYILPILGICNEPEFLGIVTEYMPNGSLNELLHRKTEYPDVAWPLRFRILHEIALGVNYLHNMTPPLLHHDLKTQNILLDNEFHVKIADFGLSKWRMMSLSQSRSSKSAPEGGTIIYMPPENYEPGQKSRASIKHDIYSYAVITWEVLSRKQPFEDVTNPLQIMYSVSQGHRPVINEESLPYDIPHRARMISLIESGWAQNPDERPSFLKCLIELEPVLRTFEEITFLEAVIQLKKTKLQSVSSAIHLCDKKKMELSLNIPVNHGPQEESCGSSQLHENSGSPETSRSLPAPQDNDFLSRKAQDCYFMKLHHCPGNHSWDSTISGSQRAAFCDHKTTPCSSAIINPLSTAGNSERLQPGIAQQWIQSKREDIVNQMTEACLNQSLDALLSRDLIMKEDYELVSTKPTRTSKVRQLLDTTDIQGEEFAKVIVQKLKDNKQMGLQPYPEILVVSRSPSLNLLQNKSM
Test [13] has as its target T2, Serine/threonine-protein kinase Sgk1 (Homo sapiens) (UniProt O00141).
T2 sequence (whole entry): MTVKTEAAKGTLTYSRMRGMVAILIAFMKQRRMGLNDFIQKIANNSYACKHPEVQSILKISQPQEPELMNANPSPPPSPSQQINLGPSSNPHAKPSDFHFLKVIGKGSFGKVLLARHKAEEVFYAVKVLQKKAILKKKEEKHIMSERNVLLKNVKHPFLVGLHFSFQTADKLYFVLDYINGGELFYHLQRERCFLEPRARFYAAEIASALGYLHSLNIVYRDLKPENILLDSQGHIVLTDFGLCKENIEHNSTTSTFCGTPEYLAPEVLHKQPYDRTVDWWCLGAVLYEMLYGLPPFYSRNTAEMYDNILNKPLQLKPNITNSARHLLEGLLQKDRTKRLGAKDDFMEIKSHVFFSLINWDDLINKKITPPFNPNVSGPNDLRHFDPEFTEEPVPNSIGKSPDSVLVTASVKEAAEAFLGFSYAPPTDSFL
The test can be described thus: Inhibition of human SGK1 at 500 nM by HotSpot assay relative to control.

The target of test [14] is Serine/threonine-protein kinase 16 (Homo sapiens) (UniProt O75716). The test can be described thus: Inhibition of human STK16 at 500 nM by HotSpot assay relative to control.
Test [15] addresses High affinity nerve growth factor receptor (Homo sapiens) (UniProt P04629). The test can be described thus: Inhibition of human TRKA at 500 nM by HotSpot assay relative to control.
Test [16] deals with T3, Serine/threonine-protein kinase ULK1 (Homo sapiens) (UniProt O75385).
T3 sequence (whole entry): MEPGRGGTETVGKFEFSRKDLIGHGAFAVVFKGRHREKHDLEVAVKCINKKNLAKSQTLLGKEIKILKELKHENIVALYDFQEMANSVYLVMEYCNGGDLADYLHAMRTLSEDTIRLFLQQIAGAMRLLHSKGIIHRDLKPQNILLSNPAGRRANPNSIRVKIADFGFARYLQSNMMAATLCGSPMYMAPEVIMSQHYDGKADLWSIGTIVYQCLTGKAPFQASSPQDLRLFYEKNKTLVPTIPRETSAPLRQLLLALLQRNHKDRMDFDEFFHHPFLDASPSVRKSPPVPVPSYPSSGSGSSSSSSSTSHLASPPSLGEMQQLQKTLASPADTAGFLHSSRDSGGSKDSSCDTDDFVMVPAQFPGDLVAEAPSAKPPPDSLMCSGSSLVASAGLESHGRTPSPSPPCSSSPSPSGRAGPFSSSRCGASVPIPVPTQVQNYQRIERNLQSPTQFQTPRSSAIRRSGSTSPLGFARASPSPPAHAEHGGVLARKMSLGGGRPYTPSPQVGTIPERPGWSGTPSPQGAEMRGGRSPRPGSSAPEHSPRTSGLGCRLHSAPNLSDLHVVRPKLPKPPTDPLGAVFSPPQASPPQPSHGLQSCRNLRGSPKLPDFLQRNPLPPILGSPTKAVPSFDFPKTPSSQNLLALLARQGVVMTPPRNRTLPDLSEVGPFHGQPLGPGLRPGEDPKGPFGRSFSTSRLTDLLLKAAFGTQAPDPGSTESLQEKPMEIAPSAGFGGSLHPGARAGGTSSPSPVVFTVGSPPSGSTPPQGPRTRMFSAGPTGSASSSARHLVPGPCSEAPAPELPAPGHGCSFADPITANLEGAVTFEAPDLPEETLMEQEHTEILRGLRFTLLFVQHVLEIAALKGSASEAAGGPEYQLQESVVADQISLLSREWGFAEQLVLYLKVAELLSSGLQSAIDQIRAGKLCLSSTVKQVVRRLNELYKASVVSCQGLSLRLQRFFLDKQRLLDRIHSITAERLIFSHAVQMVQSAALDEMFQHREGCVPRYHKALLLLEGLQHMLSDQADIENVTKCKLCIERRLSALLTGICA
The test can be described thus: Inhibition of human ULK1 at 500 nM by HotSpot assay relative to control.

Sequence of Activated CDC42 kinase 1 (Homo sapiens) (Q07912 whole entry, looked up): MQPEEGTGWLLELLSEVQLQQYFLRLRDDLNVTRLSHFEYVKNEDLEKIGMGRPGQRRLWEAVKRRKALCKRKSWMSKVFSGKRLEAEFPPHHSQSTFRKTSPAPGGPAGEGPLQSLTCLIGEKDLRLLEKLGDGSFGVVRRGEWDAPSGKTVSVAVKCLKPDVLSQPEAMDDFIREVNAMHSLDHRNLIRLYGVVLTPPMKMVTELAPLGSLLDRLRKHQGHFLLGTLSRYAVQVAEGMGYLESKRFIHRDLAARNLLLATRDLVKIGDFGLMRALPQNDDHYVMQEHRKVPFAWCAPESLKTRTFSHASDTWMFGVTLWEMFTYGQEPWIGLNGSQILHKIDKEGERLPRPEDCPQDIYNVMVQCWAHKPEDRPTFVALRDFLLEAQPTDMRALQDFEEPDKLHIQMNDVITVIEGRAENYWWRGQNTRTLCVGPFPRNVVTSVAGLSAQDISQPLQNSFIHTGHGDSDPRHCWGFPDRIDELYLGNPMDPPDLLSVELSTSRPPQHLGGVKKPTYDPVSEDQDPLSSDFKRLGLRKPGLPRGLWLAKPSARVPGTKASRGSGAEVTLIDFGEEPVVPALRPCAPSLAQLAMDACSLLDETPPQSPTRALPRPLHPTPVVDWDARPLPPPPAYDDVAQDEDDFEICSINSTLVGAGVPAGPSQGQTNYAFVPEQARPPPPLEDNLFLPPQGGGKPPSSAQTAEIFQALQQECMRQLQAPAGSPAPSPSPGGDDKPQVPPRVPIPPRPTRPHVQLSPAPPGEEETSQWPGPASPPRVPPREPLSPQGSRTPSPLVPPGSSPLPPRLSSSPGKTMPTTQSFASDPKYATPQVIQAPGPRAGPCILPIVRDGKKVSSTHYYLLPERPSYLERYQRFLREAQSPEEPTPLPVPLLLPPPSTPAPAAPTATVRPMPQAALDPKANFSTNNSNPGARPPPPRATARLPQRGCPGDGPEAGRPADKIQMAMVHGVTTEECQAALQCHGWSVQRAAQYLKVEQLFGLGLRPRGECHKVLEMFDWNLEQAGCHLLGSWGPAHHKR
Sequence of High affinity nerve growth factor receptor (Homo sapiens) (P04629 33-796 limits assumed): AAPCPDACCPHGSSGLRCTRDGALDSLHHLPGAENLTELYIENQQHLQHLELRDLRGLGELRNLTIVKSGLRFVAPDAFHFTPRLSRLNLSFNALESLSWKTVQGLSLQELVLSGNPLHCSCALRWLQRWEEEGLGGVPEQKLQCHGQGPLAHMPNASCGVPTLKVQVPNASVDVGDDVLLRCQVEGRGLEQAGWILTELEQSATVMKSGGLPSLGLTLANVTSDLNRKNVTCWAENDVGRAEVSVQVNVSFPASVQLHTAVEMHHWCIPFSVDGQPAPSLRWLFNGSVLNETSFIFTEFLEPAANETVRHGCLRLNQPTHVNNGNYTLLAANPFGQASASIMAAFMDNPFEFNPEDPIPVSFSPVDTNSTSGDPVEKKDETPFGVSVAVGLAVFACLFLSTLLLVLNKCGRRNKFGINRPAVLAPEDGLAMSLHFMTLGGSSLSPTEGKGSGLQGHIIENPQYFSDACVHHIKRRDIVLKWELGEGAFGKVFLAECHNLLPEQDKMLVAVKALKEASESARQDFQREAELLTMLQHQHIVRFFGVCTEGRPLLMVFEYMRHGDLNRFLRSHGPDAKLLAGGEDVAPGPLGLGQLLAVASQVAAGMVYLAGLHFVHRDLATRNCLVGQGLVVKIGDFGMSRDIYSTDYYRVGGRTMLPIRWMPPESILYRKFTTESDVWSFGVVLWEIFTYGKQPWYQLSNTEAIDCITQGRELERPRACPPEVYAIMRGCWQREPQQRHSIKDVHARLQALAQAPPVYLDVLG

On to `Oc1n[nH]c2nnc(-c3c(-c4ccccc4)nn4ccccc34)cc12`, for which the inhibition (commonly the relative decrease from the control value, in per cent) in [1] is 8.98%; in test [2] it was 0.95%; in test [3] it was 4.58%; in [4] it was -0.49%; in test [5], -4.89%; in test [6] it was 72.6%. Moreover, the inhibition in [7] is 5.81%; in [8], 2.29%; in test [9] it was 5.77%; in [10] it was -8.15%; in test [11], -3.08%; in test [12], 11.9%. In addition, the inhibition in [13] is -4.65%; in test [14], 1.39%; in [15], 4.28%; in test [16], 0.87%.

`Nc1n[nH]c2nnc(-c3c(-c4ccccc4)nn4ccccc34)cc12`: the inhibition in [1] is 17.3%; in [2], -0.55%; in [3], 4.98%; in test [4] it was 7.1%; in test [5], -1.88%; in [6], 21.7%. Also, the inhibition in test [7] was 29.1%; in test [8], 5.07%; in [9], 10%; in test [10], -4.11%; in [11], -0.73%; in test [12], 13%. In addition, the inhibition in [13] was 0.11%; in test [14], -7.84%; in [15], -1.03%; in [16], 2.87%.
